Our source for the RP-LC retention time values is the METLIN SMRT retention time set (Domingo-Almenara et al. 2019).

A short description of the data set: gradient 5% acetonitrile 3 min, to 50% in 2 min, to 85% in 15 min, held 3 min, 100 µL/min. As to conditions: column: Zorbax Extend-C18 2.1 x 50 mm; eluents: water / acetonitrile, 0.1% formic acid. In a few lines: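 Pure standards were run in mixtures of ~100 molecules by HPLC coupled to a quadrupole time-of-flight mass spectrometer. The column was a Zorbax Extend-C18 (2.1 × 50 mm, 1.8 μm) at 100 μL/min, with water and acetonitrile each containing 0.1% formic acid, in positive and negative ionization mode. Dead and dwell volumes were 40 μL and 900 μL. Retention time was taken from computationally picked adduct peaks, each manually inspected, with data collected over 3 months.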
In the case of `CCOC(=O)c1cccc(NC(=O)Nc2cccc(-c3ccc(N4CCOCC4)nn3)c2)c1`, the RP-LC retention time amounted to 742 s. Take `Cc1cccc(Nc2ccc(N3CCN(C(=O)Cc4c[nH]c5ccccc45)CC3)nn2)n1`: the RP-LC retention time was 574 s. Molecule `Cc1ccc2c(c1)NN=C(C(=O)N1CCC(C)CC1)S2(=O)=O` yielded an RP-LC retention time of 809 s. In turn, `NC(=O)c1ccc(NC(=O)C2CCN(c3cc(N4CCCCC4)ncn3)CC2)cc1` gave an RP-LC retention time of 595 s. Consider `Cc1ccc(NC(=O)c2[nH]c3cc(C)sc3c2CN(C)C)c(Cl)c1`, for which the RP-LC retention time was 708 s. The molecule `COc1ccc(-c2nnc(CC(=O)N3CCOCC3)o2)cc1` yielded an RP-LC retention time of 647 s. Next, `COC(=O)C1=CN(C2CC2)c2cc(N3CCCCCC3)c(F)cc2S1(=O)=O`: 980 s; `CC(O)c1ccc(-c2ccc(CNCCCn3ccnc3)o2)cc1` (stereo unspecified): 513 s; `CCOC(=O)C1=C(CN2CCC(C)CC2)NC(=O)NC1c1cccs1` (stereo unspecified): 611 s.

`Cc1ccc(Nc2c(-c3cc(Br)ccc3F)nc3ccc(Cl)cn23)cc1` had an RP-LC retention time of 1080 s.

As for `Cc1ccc2c(c1)N(Cc1nc(-c3cccc(Br)c3)no1)C(=O)CO2`, the RP-LC retention time is 1180 s. Next, `CSc1ccc(-c2nc3cc(C)ccn3c2Nc2ccc(C)cc2)cc1`: 808 s; `CCC(=O)N(C)CCc1noc(-c2ccc(C(=O)NCCCOC)cc2)n1`: 650 s.

`O=C(Cc1nnc2c(-c3nc(C4CC4)no3)cccn12)NC1CCCC1` yielded an RP-LC retention time of 661 s. For `COc1cc(C(=O)NCCOc2ccc(F)cc2)c([N+](=O)[O-])cc1OC`, the RP-LC retention time came to 777 s.

Molecule `Cc1ccsc1CN1CCn2nnc(CCC(=O)N3CCOCC3)c2C1` returned an RP-LC retention time of 628 s.

As to `O=C(CSc1nnc(-c2ccc3c(c2)OCCO3)o1)N1CCN(c2ccccc2)CC1`, the RP-LC retention time is 850 s. Next, `COc1ccc(CNC(=O)Cc2cn(C)c3ncccc23)cc1OC`: 616 s; `O=S(=O)(c1ccc2c(c1)CCCN2)N1CCC[C@H]2CCCC[C@@H]21`: 1190 s. Regarding `Cc1ccc(NC(=O)C2CCN(S(C)(=O)=O)c3ccccc3O2)c(C)c1` (stereo unspecified), the RP-LC retention time was 894 s. In the case of `Cc1cc(C)c(S(=O)(=O)N2CCc3nc[nH]c3C2)cc1C`, the RP-LC retention time was 643 s. With `Cc1cc2c(cc1S(=O)(=O)N1CCCC1C(=O)N1CCN(C3CCCCC3)CC1)OCC(=O)N2` (stereo unspecified), the RP-LC retention time stood at 584 s. Regarding `CCc1nc(OCC(=O)Nc2cc(F)ccc2F)c2ccccc2n1`, the RP-LC retention time was determined as 854 s. `O=C(CCC(=O)Nc1noc2ccccc12)NCCc1ccc(Cl)cc1`: the RP-LC retention time was determined as 816 s. As for `O=C(C1COc2ccccc2O1)N1CCCC(COCc2ccccc2)C1` (stereo unspecified), the RP-LC retention time was determined as 1030 s. `COc1ccc(Cn2nnc(C(=O)NCC3CCCO3)c2-n2cccc2)cc1` (stereo unspecified) came in with an RP-LC retention time of 832 s. Regarding `Cc1ccccc1CC(=O)N1CCN(c2nc(CN3CCOCC3)cs2)CC1`, the RP-LC retention time was found to be 636 s. For the molecule `CCc1cc(C(=O)Nc2cc(OC)cc(OC)c2)nc2cc(-c3ccco3)nn12`, the RP-LC retention time was 795 s. For the molecule `CC(C(=O)N1CCN(c2cc(-c3ccccc3)[nH]n2)CC1)c1ccccc1` (stereo unspecified), the RP-LC retention time amounted to 824 s.

The molecule `Cc1ccc(NC(=O)Cn2nc(C)cc2C(=O)Nc2cc(C)ccc2C)cc1` gave an RP-LC retention time of 981 s. The same measure for `CCN(CCNC(=O)C1CCc2nc(N3CCOCC3)ncc2C1)c1ccccc1` (stereo unspecified): 591 s; for `O=C(CC(F)(F)F)N1CCCC(CCc2nnc(C3CCOCC3)o2)C1` (stereo unspecified): 682 s; for `CC(=O)Nc1ccc(C)cc1S(=O)(=O)N1CCc2c(c(-c3nnc(-c4ccccc4)o3)nn2C)C1`: 815 s.

`O=C(COc1ccc(Cl)cc1Cl)NC1CC(=O)N(C2CC2)C1` (stereo unspecified) yielded an RP-LC retention time of 701 s. For the molecule `CCCCN1C(=O)C(C)(C(=O)N2CCN(c3ccccc3F)CC2)Oc2cccnc21` (stereo unspecified), the RP-LC retention time is 1190 s. Molecule `CCc1ccc(CNC(=O)C2CCN(Cc3cn(CC)c4ccc(Cl)cc34)CC2)cc1` displayed an RP-LC retention time of 825 s. As for `NP(=O)(Oc1c2occc2cc2ccc(=O)oc12)N(CCCl)CCCl` (stereo unspecified), the RP-LC retention time is 738 s. The molecule `CCc1c(C2CCN(C(=O)c3ccc(OC)nc3)CC2)noc1N` showed an RP-LC retention time of 663 s.

In turn, `CCOC(=O)c1c(C(C)(C)C)oc2ccc(OCC#N)cc12` gave an RP-LC retention time of 1140 s. `COc1ccccc1-c1noc(C2CCCN2C(=O)c2ccsc2)n1` (stereo unspecified) yielded an RP-LC retention time of 802 s. Next, `CC(C)(C)NC(=O)CN1c2ccc(F)cc2-c2ccccc2S1(=O)=O`: 905 s; `O=C(Nc1nccs1)c1cc2cc([N+](=O)[O-])ccc2s1`: 821 s; `COC(=O)c1c(C)[nH]c(C(=O)N2CCCC(C(=O)NCc3ccccc3)C2)c1C` (stereo unspecified): 732 s. As for `O=C(c1ccc(OCC2CCCN2C(=O)c2ccccc2)cc1)N1CCCC1` (stereo unspecified), the RP-LC retention time was 789 s. In turn, `CC(C)c1ccc(NC(=O)CN2CCN(C(=O)Nc3ccc(Br)cc3)CC2=O)cc1` displayed an RP-LC retention time of 885 s.

Molecule `CCCCN1C(=O)C(C)(C(=O)NCc2ccccc2C)Oc2cccnc21` (stereo unspecified) showed an RP-LC retention time of 1050 s. For `O=S(=O)(NC1CCCCCCC1)c1ccc2c(c1)-c1oncc1CO2`, the RP-LC retention time worked out at 1030 s. Consider `COc1ccc(-c2nnc(N3CCC(C(=O)NC4CCCCC4)CC3)o2)cc1`, for which the RP-LC retention time came out at 811 s. For the molecule `CCc1ccc(NS(=O)(=O)c2cc(-c3nc(C(C)C)cs3)cs2)cc1`, the RP-LC retention time turned out to be 1260 s. As to `Cc1cc(C(=O)Nc2nc(-c3ccc(F)cc3)c(C)s2)no1`, the RP-LC retention time was found to be 976 s. As for `O=C(NC1CCCCC1)N1CCN(c2ccc3nnc(C4CC4)n3n2)CC1`, the RP-LC retention time came out at 645 s. Next, `Cc1ccc(-n2nc3c(=O)n(CCCC(=O)NCc4ccc(C)o4)nc(C)c3c2C)cc1`: 817 s; `CC(C)N1CCN(C(=O)c2ccc(-c3ccnc(N4CCCC4)n3)cc2)CC1`: 562 s. The same measure for `Cc1c(C(=O)N2CCN=C2SCc2cccnc2)cccc1[N+](=O)[O-]`: 577 s. Take `CCOc1ccc(NC(=O)N2CCCC2c2cc(C)on2)cc1` (stereo unspecified): the RP-LC retention time turned out to be 854 s. In the case of `COCCn1cc(CCNC(=O)Nc2cccc(F)c2)c2cccnc21`, the RP-LC retention time stood at 732 s. Next, `COc1cc(-c2nnc(-c3cccc(S(=O)(=O)N(C)C)c3)o2)cc(OC)c1OC`: 873 s. The same measure for `CC(C)(C)NC(=O)N1CC2CC1C(=O)O2` (stereo unspecified): 596 s; for `Cc1cc(F)ccc1NC(=O)C1CCc2nc(N3CCOCC3)ncc2C1` (stereo unspecified): 735 s. The same measure for `Nc1cc(C2CCN(C(=O)COc3ccc(F)cc3)CC2)no1`: 656 s; for `COc1ccc(C2(C(=O)N3CCC(c4ncc(C)n4C(C)C)C3)CC2)cc1` (stereo unspecified): 530 s; for `CC(C)NC(=O)c1ccc(OCC2CCCN2C(=O)c2cc(F)ccc2Cl)cc1` (stereo unspecified): 881 s.

Consider `COc1c(C)cnc(Cn2ccn3nc(-c4ccc(F)cc4)c(CO)c3c2=O)c1C`, for which the RP-LC retention time turned out to be 843 s.

Molecule `O=C(NCCN1CCN(C(=O)c2cccs2)CC1)Nc1ccc(C(F)(F)F)cc1` showed an RP-LC retention time of 586 s. As to `Cc1nc(C2(C)CCN(S(=O)(=O)c3c(C)c(C)cc(C)c3C)CC2)no1`, the RP-LC retention time was determined as 1140 s. `Cn1c(=O)c(N2CCN(C(=O)C3(c4ccccc4)CC3)CC2)nc2ccccc21`: the RP-LC retention time is 951 s. The molecule `CCOc1ccc(-c2nc3ncccn3c2NCc2ccc(Cl)cc2)cc1OC` had an RP-LC retention time of 760 s. Regarding `Cc1cccn2cc(-c3cccc(S(=O)(=O)N4CCOCC4)c3)nc12`, the RP-LC retention time was found to be 604 s. Take `CN1CCN(CCNC(=O)C2CCCN(c3ncnc4c3nc3n4CCCCC3)C2)CC1` (stereo unspecified): the RP-LC retention time was found to be 570 s. The same measure for `COc1ccc(Cc2nnc(SCC(=O)Nc3nc(-c4ccccc4)cs3)o2)cc1`: 985 s; for `O=C(O)c1cccn2c(=O)c3ccc(F)cc3nc12`: 687 s; for `COc1ccc(CN2CCN(c3cnn4c(C5CC5)nnc4c3)CC2)cc1`: 544 s.

In turn, `COC(=O)CNC(=O)N1CCC2(CC1)Nc1cc(F)ccc1-n1cccc12` displayed an RP-LC retention time of 816 s. Next, `O=S(=O)(Nc1ccccc1F)c1ccc(-c2nnc(C3CCC3)o2)o1`: 856 s; `Cn1ccnc1C(=O)N1CCc2nn(CC3CC3)c(=O)n2CC1`: 565 s; `COc1cccc(S(=O)(=O)N2CCN(c3cnn4c(C)nnc4c3)CC2)c1`: 671 s. `Cc1ncc2c(n1)CCN(S(=O)(=O)c1ccc(Br)s1)C2` displayed an RP-LC retention time of 778 s.

In the case of `CC(Oc1cccc(Cl)c1)C(=O)Nc1ccc2c(c1)Sc1ncccc1C(=O)N2C` (stereo unspecified), the RP-LC retention time stood at 911 s.

`COc1ccc(C(=O)N(CC(=O)N(Cc2ccco2)CC2CCCO2)C(C)(C)C)cc1` (stereo unspecified) gave an RP-LC retention time of 862 s. `Cc1cc(C(=O)N2CCCC(c3nnc(-c4cccs4)o3)C2)no1` (stereo unspecified): the RP-LC retention time came out at 694 s.

Molecule `Cc1cccc(NC(=O)CSc2nc(N3CCCCC3)nc3ccccc23)c1` gave an RP-LC retention time of 758 s.
